# Results: patent US20040006070A1, “Intraspinal continuous infusion of midazolam hydrochloride for the treatment of pain” (priority 2002, published 2004)
# “And” between values parts separate entries of the source, which are not always exact repeats. Equal entries are not always repeated. “Also recorded” adds a separate entry of the source. Structures can show the parent of a compound that is named as a salt.
# Key:
# [1] = Gait monitoring, four-grade scale of behavioral and motor changes; format: in vivo, sheep; set-up: key: Grade 0: animal standing, sheep is able to rise and ambulate without any difficulty; Grade 1: Shuffling of either rear leg or slight limp; slight distortion of normal spinal axis; Grade 2: Loss of righting reflex in one of the rear legs, sheep able to stand without assistance, but with some difficulty; Grade 3: Inability to maintain standing posture; attempts to help animal stand are unsuccessful; settings: day (1-43)
# Description: Daily rectal temperatures were taken and any behavioral/motor changes were noted. Gait monitoring will be conducted as described below based on a four-grade scale for the evaluation of behavioral and motor changes. Grade 0: animal standing, sheep is able to rise and ambulate without any difficulty. Grade 1: Shuffling of either rear leg or slight limp; slight distortion of normal spinal axis. Grade 2: Loss of righting reflex in one of the rear legs, sheep able to stand without assistance, but with some difficulty. Grade 3: Inability to maintain standing posture; attempts to help animal stand are unsuccessful.
# [2] = CSF fluid analysis and routine cultures; format: in vivo, sheep; settings: for CSF RBC Count Post Mortum / CSF WBC Count Post Mortum / CSF Glucose Post Mortum / CSF Total Protein Post Mortum: day 43
# Description: (§1) On day 43 after venous blood samples were taken, animals were euthanized (Beuthanasia 1 ml/4.5 kg IV bolus injection). CSF samples were obtained for analysis (1-2 ml drawn from L-7/S-1 after a laminectomy was performed to expose the dura) of glucose, total protein, and cell differential.
# [3] = Toxicity of continuous intrathecal infusion in acute pain sheep: clinical symptoms, necropsy, histology; format: in vivo
# Description: The inventors have completed a toxicity and efficacy study of intrathecal midazolam hydrochloride in 15 sheep instrumented with Medtronic SynchroMed® infusion systems. The surgical procedure and the hardware used in these animals was analogous to that utilized in humans. The first sheep was tested for toxicity only (3 mg/day), and all subsequent animals tested for both toxicity and analgesic activity.
# Open-label (known dose) trial: A trial with known midazolam doses was performed in the first 7 sheep. Animals were administered 3 mg/day (N=1), 5 mg/day (N=1), 10 mg/day (N=1), and 15 mg/day (N=4) for 43 days. These doses were chosen based upon previous intrathecal bolus dose studies in rats and humans, with conversion of from species to species based on cerebral spinal fluid (CSF) production rate and total CSF volume. Analgesic activity was assessed using a mechanical stimulus device which produces a stimulus of acute pain by application of force via a blunt needle applied to the shaved front foreleg of the animal. Force is applied with increasing pressure until the animal lifts its leg in response to the painful stimulus. To evaluate the analgesic effect of midazolam, response latencies were expressed as a percentage of the maximum possible effect, % MPE. The response latency is defined as follows: [formula]
# as §1
# [4] = 1-5 mg/day, prior art; cited from earlier work
# [5] = CSF, double blinded study, individual sheep, dose group not given, hydrochloride
# [6] = open label sheep Red #473, 3 mg/day
# [7] = open label sheep Sandy #518, 5 mg/day
# [8] = open label sheep Toad #498, 10 mg/day
# [9] = double blinded sheep Chicken Hawk #87, 5 mg/day, 43 days
# [10] = double blinded sheep Elmer Fudd #437, 5 mg/day, 43 days
# [11] = double blinded sheep Leghorn II #815, 15 mg/day, 43 days
# [12] = double blinded sheep Petunia #439, 15 mg/day, 43 days
# [13] = double blinded sheep Porky #402, 5 mg/day, 43 days
# [14] = double blinded sheep Roadrunner #84, 15 mg/day, 43 days
# [15] = open label sheep Dot #85, 15 mg/day, 43 days
# [16] = open label sheep Wacko #83, 15 mg/day, 43 days
# [17] = open label sheep Yacko #91, 15 mg/day, 43 days
smiles,measurement,setting,value
"Cc1ncc2n1-c1ccc(Cl)cc1C(c1ccccc1F)=NC2 [Midazolam, midazolam hydrochloride]",Gait Normal 0,"[1]; double blinded sheep Chicken Hawk #87, 5 mg/day intrathecal infusion",0
same,Gait Normal 0,"[1]; double blinded sheep Elmer Fudd #437, 5 mg/day intrathecal infusion",0
same,Gait Normal 0,"[1]; double blinded sheep Leghorn II #815, 15 mg/day intrathecal infusion",0
same,Gait Normal 0,"[1]; double blinded sheep Petunia #439, 15 mg/day intrathecal infusion",0
same,Gait Normal 0,"[1]; double blinded sheep Porky #402, 5 mg/day intrathecal infusion",0
same,Gait Normal 0,"[1]; double blinded sheep Roadrunner #84, 15 mg/day intrathecal infusion",0
same,Gait Normal 0,"[1]; open label sheep #457 Tazz, 15 mg/day intrathecal infusion",0
same,Gait Normal 0,"[1]; open label sheep #498 Toad, 10 mg/day intrathecal infusion",0
same,Gait Normal 0,"[1]; open label sheep #518 Sandy, 5 mg/day intrathecal infusion",0
same,Gait Normal 0,"[1]; open label sheep Dot #85, 15 mg/day intrathecal infusion",0
same,Gait Normal 0,"[1]; open label sheep Wacko #83, 15 mg/day intrathecal infusion",0
same,Gait Normal 0,"[1]; open label sheep Yacko #91, 15 mg/day intrathecal infusion",0
same,Gross Exam Post Mortum,"[2]; CSF, double blinded study, individual sheep, dose group (5 or 15 mg/day or saline) not given, hydrochloride",cloudy; also recorded: Colorless; also recorded: clear; also recorded: Pale pink; also recorded: Cloudy**
same,Glucose Post Mortum,[2]; [5],35 mg/dL and 25 mg/dL and 31 mg/dL and 38 mg/dL and 24 mg/dL and 47 mg/dL and 34 mg/dL
same,RBC Count Post Mortum,[2]; [5],480 µL⁻¹ and 725 µL⁻¹ and 4250 µL⁻¹ and 63 µL⁻¹ and 2 µL⁻¹ and 4 µL⁻¹ and 1325 µL⁻¹
same,Total Protein Post Mortum,[2]; [5],73 mg/dL and 40 mg/dL and 47 mg/dL and 35 mg/dL and 59 mg/dL and 39 mg/dL and 42 mg/dL
same,WBC Count Post Mortum,[2]; [5],12 µL⁻¹ and 80 µL⁻¹ and 22 µL⁻¹ and 8 µL⁻¹ and 1 µL⁻¹ and 4 µL⁻¹ and 29 µL⁻¹
same,Routine Cultures Post Mortum,"[2]; CSF, individual sheep, cell wraps 'No' / 'Growth', dose group not given",No
same,CSF RBC Count Post Mortum,[2]; [6],772 µL⁻¹
same,CSF WBC Count Post Mortum,[2]; [6],4 µL⁻¹
same,CSF Glucose Post Mortum,[2]; [7],36 mg/dL
same,CSF RBC Count Post Mortum,[2]; [7],56 µL⁻¹
same,CSF Total Protein Post Mortum,[2]; [7],46.1 mg/dL
same,CSF WBC Count Post Mortum,[2]; [7],206 µL⁻¹
same,CSF Glucose Post Mortum,[2]; [8],40 mg/dL
same,CSF RBC Count Post Mortum,[2]; [8],2160 µL⁻¹
same,CSF Total Protein Post Mortum,[2]; [8],39.6 mg/dL
same,CSF WBC Count Post Mortum,[2]; [8],36 µL⁻¹
same,inflammatory lesions,[3]; any sheep receiving midazolam alone in the acute pain sheep study,no significant inflammatory lesions were observed
same,"behavioral, toxicological, or histopathologic changes related to the infusion","[3]; closed label sheep, continuous infusion 5 or 15 mg/day","did not produce any behavioral, toxicological, or histopathologic changes"
same,Histology,[3]; [9],mild catheter reaction
same,Necropsy,[3]; [9],no gross lesions noted
same,Histology,[3]; [10],mild catheter reaction
same,Necropsy,[3]; [10],no gross lesions noted
same,Histology,[3]; [11],mild catheter reaction
same,Necropsy,[3]; [11],No obvious lesions where detected
same,Histology,[3]; [12],mild catheter reaction
same,Necropsy,[3]; [12],no gross lesions noted
same,Histology,[3]; [13],mild catheter reaction
same,Necropsy,[3]; [13],no gross lesions noted
same,Histology,[3]; [14],mild catheter reaction
same,Necropsy,[3]; [14],no gross lesions noted
same,clinical symptoms,"[3]; open label sheep #457 Tazz, 15 mg/day, 43 days",No clinical symptoms
same,clinical symptoms,"[3]; open label sheep #498 Toad, 10 mg/day, 43 days",No clinical symptoms
same,clinical symptoms,"[3]; open label sheep #518 Sandy, 5 mg/day, 43 days",No clinical symptoms
same,Histology,[3]; [15],mild catheter reaction
same,Necropsy,[3]; [15],no gross lesions noted
same,Histology,[3]; [16],mild catheter reaction
same,Necropsy,[3]; [16],no gross lesions noted
same,Histology,[3]; [17],mild catheter reaction
same,Necropsy,[3]; [17],no gross lesions noted
same,"behavioral, toxicological, or histopathologic changes related to the infusion","[3]; open label sheep, continuous infusion 3-15 mg/day, 43 days","did not produce any behavioral, toxicological, or histopathologic changes"
same,toxicities reported,[4],Sedation and somnolence
